Experimental data as given in article PMC4835225 (Chembiochem : a European journal of chemical biology, 2015).

Molecular target: hENO1 (Homo sapiens, UniProt P06733)
Assay: isothermal titration calorimetry
Format: binding
Details: stoichiometry 1.4-1.6 molecules of 1 per hENO1

hENO1, sequence (P06733 2-434): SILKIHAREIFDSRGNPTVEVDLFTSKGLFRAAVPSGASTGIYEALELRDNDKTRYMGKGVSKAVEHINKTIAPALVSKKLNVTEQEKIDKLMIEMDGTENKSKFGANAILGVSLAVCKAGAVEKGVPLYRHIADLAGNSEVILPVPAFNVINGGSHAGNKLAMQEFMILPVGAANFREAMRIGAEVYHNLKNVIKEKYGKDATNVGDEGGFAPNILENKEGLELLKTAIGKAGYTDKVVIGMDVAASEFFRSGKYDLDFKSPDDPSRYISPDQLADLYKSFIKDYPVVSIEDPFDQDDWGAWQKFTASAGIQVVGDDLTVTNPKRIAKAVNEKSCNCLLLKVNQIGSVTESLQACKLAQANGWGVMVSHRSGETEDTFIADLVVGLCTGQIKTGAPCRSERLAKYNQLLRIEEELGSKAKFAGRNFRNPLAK

Kd: 1900 ± 900 nM
Compound: O=C1c2c(cc(O)c([C@@H]3CCc4cc(Cl)c(Cl)n43)c2O)-c2cc(Cl)c(Cl)n21 [compound 1, (-)-chlorizidine A]
